For five cell lines, relative viability results are on record in the supplement of paper PMC10307832.

What all share (test): relative viability (nuclei count vs DMSO), 5 days (fraction); higher = more cells survive
Compound in the assay “Carfilzomib + Decitabine”: CC(C)C[C@H](NC(=O)[C@H](CCc1ccccc1)NC(=O)CN1CCOCC1)C(=O)N[C@@H](Cc1ccccc1)C(=O)N[C@@H](CC(C)C)C(=O)[C@@]1(C)CO1 [Carfilzomib] + Nc1ncn([C@H]2C[C@H](O)[C@@H](CO)O2)c(=O)n1 [Decitabine] (partner 2 µM)
A digest of the protocol:
(§1)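 Nuclei were stained with Hoechst during a one-step fixation (final 0.05% Triton X-100, 1% formaldehyde, 1 ug/ml Hoechst) carried out 5 days after dosing, then counted on 4× images. The cells, lung cancer lines in 1536-well plates, had been dosed by pin tool the day after seeding with one drug alone or a fixed anchor-drug dose plus five library-drug doses (not always all listed) in √10 steps. Relative viability is the nuclei count in treated wells divided by that in vehicle wells, and each value is the median of duplicate plates.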

Compound in the assay “Carfilzomib + Vorinostat”: CC(C)C[C@H](NC(=O)[C@H](CCc1ccccc1)NC(=O)CN1CCOCC1)C(=O)N[C@@H](Cc1ccccc1)C(=O)N[C@@H](CC(C)C)C(=O)[C@@]1(C)CO1 [Carfilzomib] + O=C(CCCCCCC(=O)Nc1ccccc1)NO [Vorinostat] (partner 1 µM)
The method in brief: as §1

Compound in the assay “Crizotinib + Dasatinib”: C[C@@H](Oc1cc(-c2cnn(C3CCNCC3)c2)cnc1N)c1c(Cl)ccc(F)c1Cl [Crizotinib] + Cc1nc(Nc2ncc(C(=O)Nc3c(C)cccc3Cl)s2)cc(N2CCN(CCO)CC2)n1 [Dasatinib] (partner 0.075 µM)
A digest of the protocol: as §1

Compound in the assay “Olaparib + Navitoclax”: O=C(c1cc(Cc2n[nH]c(=O)c3ccccc23)ccc1F)N1CCN(C(=O)C2CC2)CC1 [Olaparib] + CC1(C)CCC(c2ccc(Cl)cc2)=C(CN2CCN(c3ccc(C(=O)NS(=O)(=O)c4ccc(N[C@H](CCN5CCOCC5)CSc5ccccc5)c(S(=O)(=O)C(F)(F)F)c4)cc3)CC2)C1 [Navitoclax] (partner 0.5 µM)
A digest of the protocol: as §1

As for NCI-H2087, the relative viability with Carfilzomib + Decitabine (first compound 0.001 µM) amounted to 0.214; with Carfilzomib + Decitabine (first compound 0.003162 µM), 0.247; with Carfilzomib + Decitabine (first compound 0.01 µM), 0.179; with Carfilzomib + Decitabine (first compound 0.03162 µM) it was 0.0542; with Carfilzomib + Decitabine (first compound 0.1 µM), 0.0427; with Carfilzomib + Vorinostat (first compound 0.001 µM), 0.474. Also, the relative viability in the assay with Carfilzomib + Vorinostat (first compound 0.003162 µM) was found to be 0.601; with Carfilzomib + Vorinostat (first compound 0.01 µM), 0.225; with Carfilzomib + Vorinostat (first compound 0.03162 µM), 0.0585; with Carfilzomib + Vorinostat (first compound 0.1 µM), 0.0243; with Crizotinib + Dasatinib (first compound 0.01 µM), 0.696; with Crizotinib + Dasatinib (first compound 0.03162 µM) it was 0.861. For the same cell line, the relative viability turned out to be 0.797 in the assay with Crizotinib + Dasatinib (first compound 0.1 µM); 0.803 in the assay with Crizotinib + Dasatinib (first compound 1 µM); 0.968 with Olaparib + Navitoclax (first compound 0.08 µM); 0.869 with Olaparib + Navitoclax (first compound 0.253 µM); 0.877 with Olaparib + Navitoclax (first compound 2.53 µM); 0.728 with Olaparib + Navitoclax (first compound 8 µM).
On to BEN, for which the relative viability came out at 0.603 in the assay with Carfilzomib + Decitabine (first compound 0.001 µM); 0.861 in the assay with Carfilzomib + Decitabine (first compound 0.003162 µM); 0.643 with Carfilzomib + Decitabine (first compound 0.01 µM); 0.577 in the assay with Carfilzomib + Decitabine (first compound 0.03162 µM); 0.26 in the assay with Carfilzomib + Decitabine (first compound 0.1 µM); 0.549 with Carfilzomib + Vorinostat (first compound 0.001 µM). The relative viability with Carfilzomib + Vorinostat (first compound 0.003162 µM) came to 0.503; in the assay with Carfilzomib + Vorinostat (first compound 0.01 µM), 0.552; in the assay with Carfilzomib + Vorinostat (first compound 0.03162 µM) it was 0.598; with Carfilzomib + Vorinostat (first compound 0.1 µM), 0.273; with Crizotinib + Dasatinib (first compound 0.01 µM) it was 0.295; with Crizotinib + Dasatinib (first compound 0.03162 µM), 0.311. Besides, the relative viability with Crizotinib + Dasatinib (first compound 0.1 µM) amounted to 0.27; with Crizotinib + Dasatinib (first compound 0.3162 µM) it was 0.224; with Crizotinib + Dasatinib (first compound 1 µM), 0.312; in the assay with Olaparib + Navitoclax (first compound 0.08 µM), 0.0771; with Olaparib + Navitoclax (first compound 0.253 µM), 0.0609; in the assay with Olaparib + Navitoclax (first compound 2.53 µM), 0.0668. The relative viability with Olaparib + Navitoclax (first compound 8 µM) worked out at 0.0792.
Consider NCI-H1650, for which the relative viability came out at 0.42 in the assay with Carfilzomib + Decitabine (first compound 0.001 µM); 0.522 with Carfilzomib + Decitabine (first compound 0.003162 µM); 0.359 in the assay with Carfilzomib + Decitabine (first compound 0.01 µM); 0.148 with Carfilzomib + Decitabine (first compound 0.03162 µM); 0.177 with Carfilzomib + Decitabine (first compound 0.1 µM); 0.65 in the assay with Carfilzomib + Vorinostat (first compound 0.001 µM). Further, the relative viability with Carfilzomib + Vorinostat (first compound 0.003162 µM) was 0.475; with Carfilzomib + Vorinostat (first compound 0.01 µM), 0.19; with Carfilzomib + Vorinostat (first compound 0.03162 µM), 0.152; with Carfilzomib + Vorinostat (first compound 0.1 µM) it was 0.127; in the assay with Crizotinib + Dasatinib (first compound 0.01 µM), 0.273; with Crizotinib + Dasatinib (first compound 0.03162 µM) it was 0.299. In addition, the relative viability was 0.311 in the assay with Crizotinib + Dasatinib (first compound 0.1 µM); 0.362 in the assay with Crizotinib + Dasatinib (first compound 0.3162 µM); 0.299 with Crizotinib + Dasatinib (first compound 1 µM); 1.7 with Olaparib + Navitoclax (first compound 0.08 µM); 1.1 in the assay with Olaparib + Navitoclax (first compound 0.253 µM); 1.24 with Olaparib + Navitoclax (first compound 2.53 µM). Also, the relative viability with Olaparib + Navitoclax (first compound 8 µM) worked out at 1.11.
In the case of A-427, the relative viability was 0.587 with Carfilzomib + Decitabine (first compound 0.001 µM); 0.565 in the assay with Carfilzomib + Decitabine (first compound 0.003162 µM); 0.591 in the assay with Carfilzomib + Decitabine (first compound 0.01 µM); 0.527 with Carfilzomib + Decitabine (first compound 0.03162 µM); 0.178 with Carfilzomib + Decitabine (first compound 0.1 µM); 0.874 with Carfilzomib + Vorinostat (first compound 0.001 µM). In addition, the relative viability was 0.859 with Carfilzomib + Vorinostat (first compound 0.003162 µM); 0.842 in the assay with Carfilzomib + Vorinostat (first compound 0.01 µM); 0.307 with Carfilzomib + Vorinostat (first compound 0.03162 µM); 0.15 with Carfilzomib + Vorinostat (first compound 0.1 µM); 0.696 in the assay with Crizotinib + Dasatinib (first compound 0.01 µM); 0.765 with Crizotinib + Dasatinib (first compound 0.03162 µM). For the same cell line, the relative viability with Crizotinib + Dasatinib (first compound 0.1 µM) was 0.687; with Crizotinib + Dasatinib (first compound 1 µM), 0.719; with Olaparib + Navitoclax (first compound 0.08 µM) it was 0.946; with Olaparib + Navitoclax (first compound 0.253 µM), 0.93; in the assay with Olaparib + Navitoclax (first compound 2.53 µM), 0.526; in the assay with Olaparib + Navitoclax (first compound 8 µM) it was 0.554.
Turning to CAL-12T, the relative viability with Carfilzomib + Vorinostat (first compound 0.001 µM) was 0.722; in the assay with Carfilzomib + Vorinostat (first compound 0.003162 µM), 0.794; in the assay with Carfilzomib + Vorinostat (first compound 0.01 µM) it was 0.77; with Carfilzomib + Vorinostat (first compound 0.03162 µM), 0.487; with Carfilzomib + Vorinostat (first compound 0.1 µM), 0.121; with Crizotinib + Dasatinib (first compound 0.01 µM), 0.407. Besides, the relative viability in the assay with Crizotinib + Dasatinib (first compound 0.03162 µM) came out at 0.47; in the assay with Crizotinib + Dasatinib (first compound 0.1 µM) it was 0.394; with Crizotinib + Dasatinib (first compound 1 µM), 0.299; with Olaparib + Navitoclax (first compound 0.08 µM) it was 1.35; in the assay with Olaparib + Navitoclax (first compound 0.253 µM), 1.19; with Olaparib + Navitoclax (first compound 2.53 µM) it was 1.41. In addition, in the assay with Olaparib + Navitoclax (first compound 8 µM), the relative viability amounted to 1.08.
